{"source": "patent US6593455B2", "about": "“Tripeptide amides that block viral infectivity and methods of use thereof” (Tripep AB, priority 2001, dated 2003)", "note": "Ends that are not written are not given here."}
{"test_system": "HIV-1 SF-2", "assay": "HIV-1 infectivity assay in H9 cells (p24 production and RT activity in culture supernatants)", "type": "cell-based", "conditions": "approximately 100 μm peptide", "source_text": "The tripeptide amides made according to EXAMPLE 1 were used in several HIV-1 infectivity assays to determine the ability of said tripeptide amides to inhibit HIV replication and/or infection. The efficiency of HIV-1 replication and status of HIV-1 infection was monitored by reverse transcriptase activity and the concentration of p24 protein in the cell supernatant. (See e.g., U.S. Pat. Nos. 5,627,035 and 6,258,932B1, herein expressly incorporated by reference in their entireties, which describe similar HIV infectivity assays and others that can be used to analyze the tripeptide amides described herein). EXAMPLE 2 describes an approach that was used to screen several tripeptide amides for their ability to inhibit HIV-1 infection.\nIn this example, the methods that were used to analyze the ability of various tripeptide amides to inhibit HIV-1 replication are disclosed. Approximately 10^5 of H9 cells were infected with HIV-1 SF-2 at 25 TCID50 to test the inhibitory effect of the following synthesized tripeptides: Ser-Ile-Leu-NH2, Ile-Leu-Asp-NH2, Gly-Pro-Lys-NH2, Pro-Lys-Glu-NH2, Lys-Glu-Pro-NH2, Glu-Pro-Phe-NH2, Arg-Asp-Tyr-NH2, Asp-Tyr-Val-NH2, Tyr-Lys-Thr-NH2, Arg-Ala-Glu-NH2, Ala-Glu-Gln-NH2, Glu-Gln-Ala-NH2, Val-Lys-Asn-NH2, Thr-Glu-Thr-NH2, Leu-Leu-Val-NH2, Val-Gln-Asn-NH2, Gln-Asn-Ala,-NH2, Asn-Ala-Asn-NH2, Asn-Pro-Asp-NH2, Pro-Asp-Cys-NH2, Cys-Lys-Thr-NH2, Thr-Ile-Leu-NH2, Pro-Gly-Ala-NH2, Thr-Leu-Glu-NH2, Thr-Ala-Cys-NH2, Ala-Cys-Gln-NH2, Gln-Gly-Val-NH2, Pro-Gly-His-NH2, and Arg-Val-Leu-NH2. Accordingly, the H9 cells were resuspended with or without the different peptides (approximately 100 μm) in 1 ml of RPMI 1640 medium supplemented with 10% (v/v) heat-inactivated fetal bovine serum (FBS), penicillin (100 μ/ml), and streptomycin (100 μ/ml), all available through GIBCO, and Polybrene (2 μg/ml), available through Sigma. Thereafter, viruses were added at 25 TCID50 in a volume of 20-30 μl. Cells were incubated with virus at 37° C. for 1 hr then pelleted at 170×g for 7 minutes. The cells were then washed three times in RPMI medium with or without peptides at room temperature and pelleted at 170×g for 7 minutes, as above. After the final wash, the cells were resuspended in RPMI culture medium containing the peptides in a 24-well plate (Costar corporation) and were kept at 37° C. in 5% CO2 with humidity.\nCulture supernatants were collected and analyzed when the medium was changed at 4, 7, 10, and 14 days post infection. To monitor the replication of virus, reverse transcriptase (RT) activity in the supernatants was assayed using a commercially available Lenti-RT activity kit. (Cavidi Tech, Uppsala, Sweden). The amount of RT was determined with the aid of a regression line of standards.\nThe presence of p24 in the supernatants was determined using a commercially available HIV p24 antigen detection kit (ELISA kit from Abbott Laboratories, North Chicago, U.S.A.). In some cases, serial dilutions of the supernatants were made so as to more accurately detect p24 concentration."}
{"substance": "Ala-Cys-Gln-NH2", "inhibition of HIV-1 infection": "effectively inhibit HIV-1 infection"}
{"substance": "Ala-Glu-Gln-NH2", "inhibition of HIV-1 infection": "effectively inhibit HIV-1 infection"}
{"substance": "Arg-Ala-Glu-NH2", "inhibition of HIV-1 infection": "effectively inhibit HIV-1 infection"}
{"substance": "Arg-Asp-Tyr-NH2", "inhibition of HIV-1 infection": "effectively inhibit HIV-1 infection"}
{"substance": "Arg-Val-Leu-NH2", "inhibition of HIV-1 infection": "effectively inhibit HIV-1 infection"}
{"substance": "Asn-Ala-Asn-NH2", "inhibition of HIV-1 infection": "effectively inhibit HIV-1 infection"}
{"substance": "Asn-Pro-Asp-NH2", "inhibition of HIV-1 infection": "effectively inhibit HIV-1 infection"}
{"substance": "Asp-Tyr-Val-NH2", "inhibition of HIV-1 infection": "effectively inhibit HIV-1 infection"}
{"substance": "Cys-Lys-Thr-NH2", "inhibition of HIV-1 infection": "effectively inhibit HIV-1 infection"}
{"substance": "Gln-Asn-Ala-NH2", "inhibition of HIV-1 infection": "effectively inhibit HIV-1 infection"}
{"substance": "Gln-Gly-Val-NH2", "inhibition of HIV-1 infection": "effectively inhibit HIV-1 infection"}
{"substance": "Glu-Gln-Ala-NH2", "inhibition of HIV-1 infection": "effectively inhibit HIV-1 infection"}
{"substance": "Glu-Pro-Phe-NH2", "inhibition of HIV-1 infection": "effectively inhibit HIV-1 infection"}
{"substance": "Gly-Pro-Lys-NH2", "inhibition of HIV-1 infection": "effectively inhibit HIV-1 infection"}
{"substance": "Ile-Leu-Asp-NH2", "inhibition of HIV-1 infection": "effectively inhibit HIV-1 infection"}
{"substance": "Leu-Leu-Val-NH2", "inhibition of HIV-1 infection": "effectively inhibit HIV-1 infection"}
{"substance": "Lys-Glu-Pro-NH2", "inhibition of HIV-1 infection": "effectively inhibit HIV-1 infection"}
{"substance": "Pro-Asp-Cys-NH2", "inhibition of HIV-1 infection": "effectively inhibit HIV-1 infection"}
{"substance": "Pro-Gly-Ala-NH2", "inhibition of HIV-1 infection": "effectively inhibit HIV-1 infection"}
{"substance": "Pro-Gly-His-NH2", "inhibition of HIV-1 infection": "effectively inhibit HIV-1 infection"}
{"substance": "Pro-Lys-Glu-NH2", "inhibition of HIV-1 infection": "effectively inhibit HIV-1 infection"}
{"substance": "Ser-Ile-Leu-NH2", "inhibition of HIV-1 infection": "effectively inhibit HIV-1 infection"}
{"substance": "Thr-Ala-Cys-NH2", "inhibition of HIV-1 infection": "effectively inhibit HIV-1 infection"}
{"substance": "Thr-Glu-Thr-NH2", "inhibition of HIV-1 infection": "effectively inhibit HIV-1 infection"}
{"substance": "Thr-Ile-Leu-NH2", "inhibition of HIV-1 infection": "effectively inhibit HIV-1 infection"}
{"substance": "Thr-Leu-Glu-NH2", "inhibition of HIV-1 infection": "effectively inhibit HIV-1 infection"}
{"substance": "Tyr-Lys-Thr-NH2", "inhibition of HIV-1 infection": "effectively inhibit HIV-1 infection"}
{"substance": "Val-Gln-Asn-NH2", "inhibition of HIV-1 infection": "effectively inhibit HIV-1 infection"}
{"substance": "Val-Lys-Asn-NH2", "inhibition of HIV-1 infection": "effectively inhibit HIV-1 infection"}
